In patent publication US20090233910A1, “Npy antagonists, preparation and uses” (CEREP, priority 2005, published 2009):

Biological target: T1, human Y4 receptor (Homo sapiens, UniProt P50391)
T1 construct: expressed in transfected cells; host or cells: CHO cells (CHO-Y4H), membrane preparation
Experiment: Binding test to the NPY Y4 receptor ([125I]-human PP, CHO cell membranes)
Conditions: human Y4, [125I]-human PP
Procedure: The CHO cells expressing either the Y4 or the Y5 human recombinant receptor are cultured in DMEM medium to which is added 5% dialysed foetal calf serum, 10 mM Hepes buffer and 0.8 g/l sodium bicarbonate. They are lifted from their support using a 36 mM citrate buffer without trypsin and without EDTA, and washed in PBS buffer free of Ca^2+ and of Mg^2+. The cell residues are stored at (−80° C.) until fractioning.
The cell residue is redissolved in 10 mM TRIS buffer, 3 mM MgCl2, pH 7.4 and separated with polytron. After centrifuging at 20 000×g the residue is redissolved in this same buffer, potter separated and aliquoted for storage in liquid nitrogen to around 5 mg/ml proteins.
Approximately 80 μg of membranes of CHO cells having stable expression of the human Y4 receptor are incubated for 60 min at 30° C. in 200 μl Krebs-Ringer buffer (pH 7.4) containing 20 mM Hepes, 1% bovine serum albumin, 0.25 mg/ml bacitracin and 0.1 nM of [^125I]-human PP (Pancreatic Polypeptide, Perkin Elmer, NEX 315). The reaction is halted by filtering through Wathman GF/C filters and washing with 3 times 4 ml of buffer at 4° C. The radioactivity deposited on the filter is counted with a gamma counter (Whizard 1470, Wallac, Perkin Elmer). Non-specific binding is determined in the presence of 0.3 μM of human PP (Neosystem, SC104). […]

T1 sequence (P50391 whole entry): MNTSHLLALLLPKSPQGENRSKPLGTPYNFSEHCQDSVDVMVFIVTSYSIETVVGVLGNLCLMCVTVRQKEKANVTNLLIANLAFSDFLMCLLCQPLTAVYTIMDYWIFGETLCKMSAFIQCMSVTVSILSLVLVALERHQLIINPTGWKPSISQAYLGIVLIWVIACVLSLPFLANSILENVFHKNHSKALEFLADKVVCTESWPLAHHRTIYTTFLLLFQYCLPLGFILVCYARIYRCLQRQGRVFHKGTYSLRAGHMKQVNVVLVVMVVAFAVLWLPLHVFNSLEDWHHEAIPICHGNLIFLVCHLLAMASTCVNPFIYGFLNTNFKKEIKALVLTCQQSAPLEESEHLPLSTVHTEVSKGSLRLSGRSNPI

Question: `CCCCN1CCC(Oc2ccc(C(=O)Nc3ccc(Oc4ccc(NC(=O)NC(CC)CC)cc4OC)cc3)cc2)CC1` [Example 103, 4-(1-Butyl-piperidin-4-yloxy)-N-(4-{4-[3-(1-ethyl-propyl)-ureido]-2-methoxy-phenoxy}-phenyl)-benzamide] was tested. Which IC50 did it give?
Answer: 2620 nM
